Experimental data published in patent EP0652217A1, “N-substituted imidazole derivatives” (MITSUBISHI CHEMICAL CORPORATION, priority 1993, dated 1995).

What was measured:
Assay type in all cases: in vivo
golden syrian hamsters = assay: Anti-hyperlipemic activity: inhibition of serum total cholesterol increase in cholesterol-fed hamsters; conditions: hamsters on feed with 1 % cholesterol and 0.5 % cholic acid
Experimental: Six-week old golden syrian hamsters (4 to 5 animals/group) were used.
Untreated control group received normal solid feed (MF, Oriental Kobo Kogyo), while control and a drug-treated groups received feed containing 1 % cholesterol and 0.5 % cholic acid (manufactured by Oriental Kobo Kogyo) to induce […].
The test compound was suspended in 1.0 % Tween 80. The solvent or the test compound was started to be orally administered (10 ml/kg, once a day, for 5 days) as soon as feed was changed to cholesterol-containing feed. Alter final administration, blood was drawn from abdominal descendens main vein while anesthetized with nembutal. Serum was collected and total cholesterol (TC) in serum was determined according to enzymatic method using assay kit (Kyowa Medics).

KK-A^v mice = assay: Activity to lower blood sugar (hypoglycaemic activity) in KK-A^v mice; conditions: serum
Experimental: Ten-week old KK-A^v mice (4 - 6 animals/group) were used.
The solvent (1 % Tween 80 solution) or a suspension of the test compound was orally administered once a day for 11 days (10 ml/kg).
Before administration and after the final administration, blood was drawn from caudal vein, and serum was collected and blood sugar level in serum was determined.
There was no difference between blood sugar levels before and after administration for control group. The test compound provided statistically significant decrease in blood sugar level for KK-A^v mice compared with the value before administration. The change in weight of test compound-treated group during oral administration was almost same as that of the control group.

[1] = test system: Spontaneously hypertensive rats (SHR); assay: Antihypertensive activity: blood pressure lowering in SHR; conditions: oral, suspended in 1.0 % Tween 80
Experimental: Spontaneously hypertensive rats (SHR) were anesthetized with ether and polyethylene catheter for measurement of blood pressure was inserted in ventral aortas via caudal artery on the day before these experiments, and placed in separate cages and their tails were fixed. Under aparalytic conditions, blood pressure of semi-restrained rats was measured using a pressure transducer (TP-400T, manufactured by Nippon Koden). Heart rate was determined from pulse wave measured by a cardiotachometer (AT0691G, manufactured by Nippon Koden). On the test day, the test compounds were administered to rats after blood pressure and heart rate were confirmed to become sufficiently stable.
The test compounds were suspended in Tween 80 (1.0 % solution, 10 ml/kg) and orally administered to SHRs.

[2] = oral 30 mg/kg once a day for 5 days
[3] = oral 100 mg/kg once a day for 5 days

SMILES | Inhibition of TC increase (golden syrian hamsters; [2]) | Inhibition of TC increase (golden syrian hamsters; [3]) | Maximum fall in blood pressure ([1]; dose 10 mg/kg) | also measured
c1cc(OCCCn2ccnc2)c2c(c1)OCO2 [Compound 1, 4-[3-(1-imidazolyl)propoxy]-1,3-benzodioxole] | 80% | 100% | – | Blood sugar level, After administration (KK-A^v mice; after oral 30 mg/kg once a day for 11 days, P < 0.05 vs value before administration): 532.2 ± 23.9; Blood sugar level, Before administration (KK-A^v mice; baseline before administration, 30 mg/kg group): 676.4 ± 33.7
N#Cc1ncn(CCCOc2cccc3c2OCO3)c1C#N [Compound 4, 4-[3-(4,5-dicyano-1-imidazolyl)propoxy]-1,3-benzodioxole] | – | – | -20 mmHg | –
Clc1ncn(CCCOc2cccc3c2OCO3)c1Cl [Compound 5, 4-[3-(4,5-dichloro-1-imidazolyl)propoxy]-1,3-benzodioxole] | – | – | -20 mmHg | –
c1cc(OCCCn2cnc3ccccc32)c2c(c1)OCO2 [Compound 6, 4-[3-(1-benzimidazolyl)propoxy]-1,3-benzodioxole] | – | – | -20 mmHg | –
c1cc(OCCCCn2ccnc2)c2c(c1)OCO2 [Compound 7, 4-[4-(1-imidazolyl)butoxy]-1,3-benzodioxole] | 38% | – | -60 mmHg | –
c1cc(OCCCCCn2ccnc2)c2c(c1)OCO2 [Compound 8, 4-[5-(1-imidazolyl)pentoxy]-1,3-benzodioxole] | – | – | -25 mmHg | –
O=C(NCCCn1ccnc1)c1ccc2c(c1)OCO2 [Compound 13, N-[3-(1-imidazolyl)propyl]-3,4-methylenedioxybenzamide] | 26% | 60% | – | –
O=C(NCCCn1ccnc1)c1ccc2c(c1)OCCO2 [Compound 16, N-[3-(1-imidazolyl)propyl]-1,4-benzodioxane-6-carboxamide] | – | 79% | – | Maximum fall in blood pressure ([1]; dose 30 mg/kg): -34.3 mmHg
